Experimental data reported in US9981913B2, “Liver X receptor (LXR) modulators” (Ralexar Therapeutics, Inc., priority 2013, dated 2018).

Target: T1, human LXRβ (AA 153-461) LBD (Homo sapiens, UniProt P55055)
T1 construct: human LXRβ (AA 153-461) LBD plasmid; expressed in transfected cells; host or cells: HEK 293 cells, transient transfection with Fugene 6
T1 sequence (P55055 153-460 limits assumed): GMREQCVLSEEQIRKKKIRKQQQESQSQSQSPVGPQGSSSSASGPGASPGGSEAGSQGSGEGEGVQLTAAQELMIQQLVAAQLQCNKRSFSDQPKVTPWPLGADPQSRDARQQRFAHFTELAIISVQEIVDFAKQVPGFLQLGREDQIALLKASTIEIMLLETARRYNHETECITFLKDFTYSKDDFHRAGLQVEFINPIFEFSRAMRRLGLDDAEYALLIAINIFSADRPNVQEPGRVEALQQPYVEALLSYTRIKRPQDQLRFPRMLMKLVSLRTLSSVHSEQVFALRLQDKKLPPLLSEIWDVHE
Test: Gal4 LXRβ cotransfection assay (LXRβ Gal fusion assay)
Assay type: cell-based
Settings: transiently transfected HEK 293 cells, Gal4-responsive luciferase reporter, compounds 0.01-10 μM, triplicate
Procedure: For transient transfection of HEK 293 cells, 6×10^3 cells are plated into 96-well dishes. Each well is transfected with 25 ng 5×UAS-luciferase reporter (pG5luc) and 25 ng of […] human LXRβ (AA 153-461) LBD plasmid using Fugene 6 reagent (Roche; Indianapolis, Ind.). The chimeric protein is assessed for the ability to transactivate a Gal4-responsive luciferase reporter plasmid in a concentration-responsive manner to compounds (0.01-10 μM). Luciferase activity at each dose concentration is measured in triplicate using standard substrate reagents (BD Biosciences; San Diego, Calif.). Data is expressed as relative light units and are shown below in Table 1.

| SMILES | EC50 [µM] |
| --- | --- |
| CCOC(=O)Cc1nc(C(F)(F)F)cn1-c1ccc(-c2cccc(S(C)(=O)=O)c2)cc1 [Example 1, Ethyl 2-(1-(3′-(methylsulfonyl)-[1,1′-biphenyl]-4-yl)-4-(trifluoromethyl)-1H-imidazol-2-yl)acetate] | 1 to 10 |
| CS(=O)(=O)c1cccc(-c2ccc(-n3cc(C(F)(F)F)nc3CC(=O)O)cc2)c1 [Example 2, 2-(1-(3′-(Methylsulfonyl)-[1,1′-biphenyl]-4-yl)-4-(trifluoromethyl)-1H-imidazol-2-yl)acetic acid] | > 10 |
| CCOC(=O)Cc1nc(C(F)(F)F)cn1-c1ccc(-c2ccc(CO)c(S(C)(=O)=O)c2)cc1 [Example 3, Ethyl 2-(1-(4′-(hydroxymethyl)-3′-(methylsulfonyl)-[1,1′-biphenyl]-4-yl)-4-(trifluoromethyl)-1H-imidazol-2-yl)acetate] | < 1 |
| CS(=O)(=O)c1cc(-c2ccc(-n3cc(C(F)(F)F)nc3CC(=O)O)cc2)ccc1CO [Example 4, 2-(1-(4′-(Hydroxymethyl)-3′-(methylsulfonyl)[1,1′-biphenyl]-4-yl)-4-(trifluoromethyl)-1H-imidazol-2-yl)acetic acid] | > 10 |
| CCOC(=O)c1cc(-c2ccc(-c3cccc(S(C)(=O)=O)c3)cc2)n(CC(C)C)n1 [Example 5, Ethyl 1-isobutyl-5-(3′-(methylsulfonyl)-[1,1′-biphenyl]-4-yl)-1H-pyrazole-3-carboxylate] | < 1 |
| CC(C)Cn1nc(C(=O)O)cc1-c1ccc(-c2cccc(S(C)(=O)=O)c2)cc1 [Example 6, 1-Isobutyl-5-(3′-(methylsulfonyl)-[1,1′-biphenyl]-4-yl)-1H-pyrazole-3-carboxylic acid] | > 10 |
| CCOC(=O)c1cc(-c2ccc(-c3ccc(CO)c(S(C)(=O)=O)c3)cc2)n(CC(C)C)n1 [Example 7, Ethyl 5-(4′-(hydroxymethyl)-3′-(methylsulfonyl)[1,1′-biphenyl]-4-yl)-1-isobutyl-1H-pyrazole-3-carboxylate] | 1 to 10 |
| CC(C)Cn1nc(C(=O)O)cc1-c1ccc(-c2ccc(CO)c(S(C)(=O)=O)c2)cc1 [Example 8, 5-(4′-(Hydroxymethyl)-3′-(methylsulfonyl)-[1,1′-biphenyl]-4-yl)-1-isobutyl-1H-pyrazole-3-carboxylic acid] | > 10 |
| CCOC(=O)c1cn(-c2ccc(-c3cccc(S(C)(=O)=O)c3)cc2)c(CC(C)C)n1 [Example 9, Ethyl 2-isobutyl-1-(3′-(methylsulfonyl)-[1,1′-biphenyl]-4-yl)-1H-imidazole-4-carboxylate] | 1 to 10 |
| CC(C)Cc1nc(C(=O)O)cn1-c1ccc(-c2cccc(S(C)(=O)=O)c2)cc1 [Example 10, 2-Isobutyl-1-(3′-(methylsulfonyl)-[1,1′-biphenyl]-4-yl)-1H-imidazole-4-carboxylic acid] | > 10 |
| CCOC(=O)c1cn(-c2ccc(-c3ccc(CO)c(S(C)(=O)=O)c3)cc2)c(CC(C)C)n1 [Example 11, Ethyl 1-(4′-(hydroxymethyl)-3′-(methylsulfonyl)-[1,1′-biphenyl]-4-yl)-2-isobutyl-1H-imidazole-4-carboxylate] | 1 to 10 |
| CC(C)Cc1nc(C(=O)O)cn1-c1ccc(-c2ccc(CO)c(S(C)(=O)=O)c2)cc1 [Example 12, 1-(4′-(Hydroxymethyl)-3′-(methylsulfonyl)-[1,1′-biphenyl]-4-yl)-2-isobutyl-1H-imidazole-4-carboxylic acid] | > 10 |
| C=C(C)c1cc(-c2ccc(-c3cccc(S(C)(=O)=O)c3)cc2)n(CC(=O)OCC)n1 [Example 13, Ethyl 2-(5-(3′-(methylsulfonyl)-[1,1′-biphenyl]-4-yl)-3-(prop-1-en-2-yl)-1H-pyrazol-1-yl)acetate] | < 1 |
| C=C(C)c1cc(-c2ccc(-c3cccc(S(C)(=O)=O)c3)cc2)n(CC(=O)O)n1 [Example 14, 2-(5-(3′-(Methylsulfonyl)-[1,1′-biphenyl]-4-yl)-3-(prop-1-en-2-yl)-1H-pyrazol-1-yl)acetic acid] | > 10 |
| CCOC(=O)Cn1nc(C(C)C)cc1-c1ccc(-c2cccc(S(C)(=O)=O)c2)cc1 [Example 15, Ethyl 2-(3-isopropyl-5-(3′-(methylsulfonyl)-[1,1′-biphenyl]-4-yl)-1H-pyrazol-1-yl)acetate] | 1 to 10 |
| CC(C)c1cc(-c2ccc(-c3cccc(S(C)(=O)=O)c3)cc2)n(CC(=O)O)n1 [Example 16, 2-(3-Isopropyl-5-(3′-(methylsulfonyl)-[1,1′-biphenyl]-4-yl)-1H-pyrazol-1-yl)acetic acid] | > 10 |
